Laboratory results published in US12501898B2, “Synergistic pesticidal compositions and methods for delivery of active ingredients” (0903608 B.C. Ltd., priority 2017, dated 2025).
Values after ≈ are worked out from the molar mass of the structure shown. Values joined by “and” are separate entries in the source; they are usually repeats but may differ in a detail not shown here. Equal entries are not always repeated. Values belong to the compound of their own block, whether it stands above or below them.

Experiments:
Fusarium oxysporum = test: Synergistic Growth Inhibition Assay (MIC / FIC index, resazurin) against Fusarium oxysporum; format: cell-based; conditions: for MIC (B): Compound B (unsaturated aliphatic acid) alone, Fusarium oxysporum
Protocol: (§1) In some embodiments, the synergistic action between the pesticidal active ingredient, and the C6-C10 unsaturated aliphatic acid components of the pesticidal compositions according to embodiments of the present disclosure was tested using a Synergistic Growth Inhibition Assay, which is derived from and related to a checkerboard assay as is known in the art for testing of combinations of antimicrobial agents. In the Synergistic Growth Inhibition Assay used in accordance with some embodiments of the present disclosure, multiple dilutions of combinations of pesticidal active ingredient and C6-C10 (or alternatively C11 or C12) unsaturated aliphatic acid agents are tested in individual cells for inhibitory activity against a target pest or pathogenic organism. In one such embodiment, the combinations of pesticidal active ingredient and C6-C10 unsaturated aliphatic acid agents may preferably be tested in decreasing concentrations. In a further such embodiment, the combinations of pesticidal active ingredient and C6-C10 (or alternatively C11 or C12) unsaturated aliphatic acid agents may be tested in increasing concentrations. These multiple combinations of the pesticidal active ingredient and C6-C10 (or alternatively C11 or C12) unsaturated aliphatic acid agents may be prepared in 96-well microtiter plates. In one such embodiment, the Synergistic Growth Inhibition Assay then comprises rows which each contain progressively decreasing concentrations of the pesticidal active ingredient and C6-C10 (or alternatively C11 or C12) unsaturated aliphatic acid agents to test for the MIC of the agents in combination at which growth of the target pest or pathogen is inhibited. Thus, each well of the microtiter plate is a unique combination of the two agents, at which inhibitory efficacy of the combination against the target pest or pathogen can be determined.
(§2) In one embodiment according to the present disclosure, for each row of microtiter cells in the Synergistic Growth Inhibition Assay, the FIC index is calculated from the lowest concentration of the pesticidal active ingredient and C6-C10 unsaturated aliphatic acid agents necessary to inhibit growth of a target pest or pathogen. The FIC of each component is derived by dividing the concentration of the agent present in that well of the microtiter plate by the minimal inhibitory concentration (MIC) needed of that agent alone to inhibit growth of the target pest or pathogen. The FIC index is then the sum of these values for both agents in that well of the microtiter plate. […] Fractional inhibitory concentration indices may then used as measure of synergy. […] When the FIC index is equal to 1, the combination is additive.
(§3) In some embodiments of the present disclosure, the exemplary Synergistic Growth Inhibition Assay was conducted starting with an initial composition comprising a pesticidal active ingredient agent at its individual MIC and a C6-C10 (or alternatively C11 or C12) unsaturated aliphatic acid agent at its individual MIC in the first well of a row on a 96 well microtiter plate. Then, serial dilutions of these initial compositions in successive wells in the row of the microtiter plate were used to assay the pesticidal composition under the same conditions to determine the concentration of the composition combining the two agents corresponding to the microtiter well in which growth inhibition of the target pest or organism ceases.
In some embodiments, Fusarium oxysporum was used as a representative pest organism or pathogen to determine synergy in pesticidal compositions comprising a pesticidal active ingredient agent and a C6-C10 (or alternatively C11 or C12) unsaturated aliphatic acid agent. Resazurin dye (also known as Alamar blue dye) was used as an indicator to determine the presence of growth or inhibition of growth of Fusarium oxysporum in the wells of the 96 well microtiter plates used in the exemplary Synergistic Growth Inhibition Assay.

Botrytis cinerea = test: Synergistic Growth Inhibition Assay (MIC / FIC index, resazurin) against Botrytis cinerea; format: cell-based
Protocol: as §1
as §2, with “additive. […]” for “additive.”

Sclerotinia sclerotiorum = test: Synergistic Growth Inhibition Assay (MIC / FIC index) against Sclerotinia sclerotiorum; format: cell-based; conditions: for MIC (B): individual compound alone, incubation 7 days
Protocol: as §1, §2, §3
A culture of the representative fungal pathogen, namely Fusarium oxysporum or Botrytis cinerea, for example, is grown to exponential phase in potato dextrose broth (PDB).

[1] = Solubility / effective solubilized concentration in 10% DMSO/90% PDB by HPLC
Protocol: This solution was diluted 10-fold in potato dextrose broth (PDB) to give a concentration of 0.05 mg/mL in 10% DMSO/90% PDB.
This solution was diluted 10-fold in potato dextrose broth (PDB) to give a concentration of 0.1 mg/mL in 10% DMSO/90% PDB.

Trichoplusia ni [2] = test: In-vitro insecticidal efficacy on treated modified McMorran artificial diet (Colby synergy); format: in vivo, Trichoplusia ni (cabbage looper); conditions: Pylon […]
Protocol: A stock solution was prepared for each of trans-2-hexenoic acid and trans-3-hexenoic acid (both available from Sigma-Aldrich, St. Louis, MO, USA), by dissolving each exemplary unsaturated aliphatic acid in 100% dimethylsulfoxide (DMSO) at a concentration of 20 mg/mL (20,000 ppm). A stock solution for the potassium salt of (2E,4E)-2,4-hexadienoic acid was prepared by dissolving the salt in water to form a 20 mg/mL (20,000 ppm) solution.
An artificial diet suitable for Trichoplusia ni (cabbage looper caterpillar) was prepared according to the modified McMorran artificial diet recipe known in the entomology field (containing agar, casein, potassium hydroxide, alphacel, Wesson's salt mix, sugar, toasted wheat germ, choline chloride, ascorbic acid, methyl paraben, aureomycin, linseed oil and vitamin solution).
The treated artificial diet was then used to fill each well of a 24-well treatment plate with approximately 0.5 mL of artificial diet, which was allowed to solidify at room temperature and stored overnight at approximately 4 C. […] Each experiment contained 3 replicates, and was repeated at least 3 times.
(§4) While for SF<1, antagonism is present and for SF=1, the efficacy of the compounds is merely additive.

Trichoplusia ni [3] = test: In-planta insecticidal efficacy on sprayed green cabbage plants (Colby synergy); format: in vivo, Trichoplusia ni (cabbage looper); conditions: […] Pylon, 0.06 mg/mL acid (salt)
Protocol: A stock solution for the potassium salt of (2E,4E)-2,4-hexadienoic acid was prepared by dissolving the salt in water to form a 20 mg/mL (20,000 ppm) solution.
Each experiment was repeated at least 3 times.
as §4

[4] = individual compound alone, incubation 48 hours

MIC of individual compound alone (MIC (A) or MIC (B)) (Fusarium oxysporum; 24 hour incubation): 73.36 µg/mL
MIC of individual compound alone (MIC (A) or MIC (B)) (Fusarium oxysporum; 48 hours incubation): 312.5 µg/mL and 78.12 µg/mL
MIC (B) (Botrytis cinerea; [4]): 39.06 µg/mL and 78.12 µg/mL
MIC (B) (Sclerotinia sclerotiorum): 39.06 µg/mL and 78.12 µg/mL
Compound: CCCCCCC=CCC(=O)O [3-Decenoic acid, 3-decenoic acid]

MIC (B) (Fusarium oxysporum; 48 hours incubation): 156.2 µg/mL
MIC (B) (Sclerotinia sclerotiorum): 156.2 µg/mL
Compound: C=CCCCC(=O)O [5-Hexenoic acid, 5-hexenoic acid]

MIC (B) (Fusarium oxysporum; 48 hours incubation): 312.5 µg/mL
Compound: C=CCCCCCC(=O)O [7-Octenoic acid, 7-octenoic acid]

MIC of individual compound alone (MIC (A) or MIC (B)) (Fusarium oxysporum; 24 hour incubation): 71.72 µg/mL
MIC of individual compound alone (MIC (A) or MIC (B)) (Fusarium oxysporum; 48 hours incubation): 312.5 µg/mL
MIC (B) (Botrytis cinerea; [4]): 78.12 µg/mL
MIC (B) (Sclerotinia sclerotiorum): 39.06 µg/mL and 78.12 µg/mL
Compound: C=CCCCCCCCC(=O)O [9-Decenoic acid, 9-decenoic acid]

MIC (B) (Fusarium oxysporum; 48 hours incubation): 156.2 µg/mL
MIC (B) (Fusarium oxysporum; 48 hours incubation, listed as Trans-2-Decenoic acid): 78.12 µg/mL
MIC of individual compound alone (MIC (A) or MIC (B)) (Fusarium oxysporum; 24 hour incubation): 36.25 µg/mL
Compound: CCCCCCC/C=C/C(=O)O [Trans-2-decenoic acid, trans-2-decenoic acid]

MIC (B) (Sclerotinia sclerotiorum): 78.12 µg/mL
Compound: CCCCCCCC/C=C/C(=O)O [Trans-2-undecenoic acid, trans-2-undecenoic acid]

The next lines start with the compound.

Compound: CCCC=CCC(=O)O [3-Heptenoic acid, 3-heptenoic acid]
MIC of individual compound alone (MIC (A) or MIC (B)) (Fusarium oxysporum; 48 hours incubation): 156.2 µg/mL
MIC (B) (Sclerotinia sclerotiorum): 78.12 µg/mL

Compound: CCCCCC=CCC(=O)O [3-Nonenoic acid, 3-nonenoic acid]
MIC (B) (Sclerotinia sclerotiorum): 39.06 µg/mL and 78.12 µg/mL and 156.2 µg/mL

Compound: CCCCC=CCC(=O)O [3-Octenoic acid, 3-octenoic acid]
MIC of individual compound alone (MIC (A) or MIC (B)) (Botrytis cinerea; compound alone, 24 hour incubation): 146.6 µg/mL

Compound: CC=CCCC(=O)O [4-Hexenoic acid, 4-hexenoic acid]
MIC (Sclerotinia sclerotiorum; Sclerotinia sclerotiorum, […], Compound B (unsaturated aliphatic acid) alone, 7 days incubation): 156 µg/mL

Compound: C/C=C/C=C/C(=O)[O-].[K+] [(2E,4E)-2,4-hexadienoic acid, potassium salt]
MIC of individual compound alone (MIC (A) or MIC (B)) (Fusarium oxysporum; 24 hour incubation): 625 µg/mL

Compound: C/C=C/C=C/C(=O)O [(2E,4E)-2,4-hexadienoic acid]
MIC of individual compound alone (MIC (A) or MIC (B)) (Fusarium oxysporum; 24 hour incubation): 125 µg/mL

Compound: CO/C=C(/C(=O)OC)c1ccccc1Oc1cc(Oc2ccccc2C#N)ncn1 [Azoxystrobin, reference compound]
MIC of individual compound alone (MIC (A) or MIC (B)) (Fusarium oxysporum; 48 hours incubation): 150 µg/mL
MIC of individual compound alone (MIC (A) or MIC (B)) (Sclerotinia sclerotiorum; compound alone, 7 days incubation): 150 µg/mL

Compound: N#Cc1c[nH]cc1-c1cccc2c1OC(F)(F)O2 [Fludioxonil, fludioxonil, reference compound]
MIC of individual compound alone (MIC (A) or MIC (B)) (Fusarium oxysporum; 24 hour incubation): 0.24063 µg/mL

Compound: COC(=O)N(OC)c1ccccc1COc1ccn(-c2ccc(Cl)cc2)n1 [Pyraclostrobin, pyraclostrobin]
solubility in 10% DMSO/90% PDB [1]: 15.4 µg/mL (≈ 39.7 µM)

Compound: C/C=C(/C)C(=O)O[C@H]1C[C@@H](OC(C)=O)[C@@]2(C)CO[C@H]3[C@H]4O[C@@H]5C[C@@H](c6ccoc6)C(C)=C5[C@@]4(C)[C@H](CC(=O)OC)[C@]1(C)[C@@H]32 [Salannin]
MIC (Botrytis cinerea; Botrytis cinerea, 48 h, individual compound alone, incubation 48 hours): 50 µg/mL

Compound: CCC/C=C/C(=O)O [Trans-2-hexenoic acid, trans-2-hexenoic acid]
MIC of individual compound alone (MIC (A) or MIC (B)) (Fusarium oxysporum; 24 hour incubation): 312.5 µg/mL
MIC (B) (Sclerotinia sclerotiorum): 78.12 µg/mL
72 hr Obs. Efficacy (Trichoplusia ni [2]; 0.05 mg/mL acid (salt)): 0%
90 hr Obs. Efficacy (Trichoplusia ni [2]; 0.05 mg/mL acid (salt)): 0%
120 hr Obs. Efficacy (Trichoplusia ni [2]; 0.05 mg/mL acid (salt)): 0%
72 hr Obs. Efficacy (Trichoplusia ni [2]; 0.30 mg/mL acid (salt)): 0%
90 hr Obs. Efficacy (Trichoplusia ni [2]; 0.30 mg/mL acid (salt)): 0%
120 hr Obs. Efficacy (Trichoplusia ni [2]; 0.30 mg/mL acid (salt)): 0%
Observed Efficacy (%) (Trichoplusia ni [3]; after 48 hours): 0%
Observed Efficacy (%) (Trichoplusia ni [3]; after 72 hours): 0%

Compound: CCCCC/C=C/C(=O)O [Trans-2-octenoic acid, trans-2-octenoic acid]
MIC (B) (Fusarium oxysporum; 48 hours incubation): 156.2 µg/mL

Compound: CC/C=C/CC(=O)O [Trans-3-hexenoic acid, trans-3-hexenoic acid]
MIC (B) (Fusarium oxysporum; 48 hours incubation): 156.2 µg/mL
MIC of individual compound alone (MIC (A) or MIC (B)) (Fusarium oxysporum; 24 hour incubation): 312.5 µg/mL
MIC of individual compound alone (MIC (A) or MIC (B)) (Fusarium oxysporum; 48 hours incubation): 312.5 µg/mL
MIC (B) (Sclerotinia sclerotiorum): 156.2 µg/mL
72 hr Obs. Efficacy (Trichoplusia ni [2]; 0.05 mg/mL acid (salt)): 0%
90 hr Obs. Efficacy (Trichoplusia ni [2]; 0.05 mg/mL acid (salt)): 0%
120 hr Obs. Efficacy (Trichoplusia ni [2]; 0.05 mg/mL acid (salt)): 0%
72 hr Obs. Efficacy (Trichoplusia ni [2]; 0.30 mg/mL acid (salt)): 4%
90 hr Obs. Efficacy (Trichoplusia ni [2]; 0.30 mg/mL acid (salt)): 4%
120 hr Obs. Efficacy (Trichoplusia ni [2]; 0.30 mg/mL acid (salt)): 0%

Compound: CCCC/C=C/CC(=O)O [Trans-3-octenoic acid, trans-3-octenoic acid]
MIC of individual compound alone (MIC (A) or MIC (B)) (Fusarium oxysporum; 48 hours incubation): 156.2 µg/mL
